From article PMC12443583 (Nature Medicine, 2025)

Legend:
p-MEK (Ser222) = assay: p-MEK in tumor biopsies, antibody bead-based Luminex; format: in vivo, human; details: post-treatment versus pretreatment biopsy
p-ERK (Thr185–Try187) = assay: p-ERK in tumor biopsies, antibody bead-based Luminex; format: in vivo, human; details: post-treatment versus pretreatment biopsy
LGSOC = details: 23 (binimetinib), cited from earlier work; for progression-free interval / response rate: phase 2 and phase 3 trials, ref 24 (selumetinib), 25 (trametinib); for discontinuation rates because of AEs: ref 25 (trametinib)

## CNS(=O)(=O)Nc1nccc(Cc2c(C)c3ccc(Oc4ncccn4)cc3oc2=O)c1F [avutometinib]
p-MEK (Ser222)
  phosphorylation of p-MEK in tumor biopsies: reduction
p-ERK (Thr185–Try187)
  phosphorylation of p-ERK in tumor biopsies: reduction

## Cn1cnc2c(F)c(Nc3ccc(Br)cc3F)c(C(=O)NOCCO)cc21 [binimetinib]
LGSOC
  progression-free interval: 9.1 months
  response rate: 16%
  discontinuation rates because of AEs: 31%

## Cn1cnc2c(F)c(Nc3ccc(Br)cc3Cl)c(C(=O)NOCCO)cc21 [selumetinib]
LGSOC
  progression-free interval: 11 months
  response rate: 15%

## CC(=O)Nc1cccc(-n2c(=O)n(C3CC3)c(=O)c3c(Nc4ccc(I)cc4F)n(C)c(=O)c(C)c32)c1 [trametinib]
LGSOC
  progression-free interval: 13 months
  response rate: 26%
  discontinuation rates because of AEs: 36%
